Results on 24 compounds are retold here after US11466010B2, “Toll-like receptor 8 (TLR8) specific antagonists and methods of making and uses thereof” (The Regents of the University of Colorado, a body corporate, priority 2017, dated 2022).

The assay concerns the target T1, human TLR8 (Homo sapiens, UniProt Q9NR97).
T1 construct: expressed in transfected cells; host or cells: HEK-Blue Null1 cells, lentiviral infection
T1 sequence (Q9NR97 27-1041): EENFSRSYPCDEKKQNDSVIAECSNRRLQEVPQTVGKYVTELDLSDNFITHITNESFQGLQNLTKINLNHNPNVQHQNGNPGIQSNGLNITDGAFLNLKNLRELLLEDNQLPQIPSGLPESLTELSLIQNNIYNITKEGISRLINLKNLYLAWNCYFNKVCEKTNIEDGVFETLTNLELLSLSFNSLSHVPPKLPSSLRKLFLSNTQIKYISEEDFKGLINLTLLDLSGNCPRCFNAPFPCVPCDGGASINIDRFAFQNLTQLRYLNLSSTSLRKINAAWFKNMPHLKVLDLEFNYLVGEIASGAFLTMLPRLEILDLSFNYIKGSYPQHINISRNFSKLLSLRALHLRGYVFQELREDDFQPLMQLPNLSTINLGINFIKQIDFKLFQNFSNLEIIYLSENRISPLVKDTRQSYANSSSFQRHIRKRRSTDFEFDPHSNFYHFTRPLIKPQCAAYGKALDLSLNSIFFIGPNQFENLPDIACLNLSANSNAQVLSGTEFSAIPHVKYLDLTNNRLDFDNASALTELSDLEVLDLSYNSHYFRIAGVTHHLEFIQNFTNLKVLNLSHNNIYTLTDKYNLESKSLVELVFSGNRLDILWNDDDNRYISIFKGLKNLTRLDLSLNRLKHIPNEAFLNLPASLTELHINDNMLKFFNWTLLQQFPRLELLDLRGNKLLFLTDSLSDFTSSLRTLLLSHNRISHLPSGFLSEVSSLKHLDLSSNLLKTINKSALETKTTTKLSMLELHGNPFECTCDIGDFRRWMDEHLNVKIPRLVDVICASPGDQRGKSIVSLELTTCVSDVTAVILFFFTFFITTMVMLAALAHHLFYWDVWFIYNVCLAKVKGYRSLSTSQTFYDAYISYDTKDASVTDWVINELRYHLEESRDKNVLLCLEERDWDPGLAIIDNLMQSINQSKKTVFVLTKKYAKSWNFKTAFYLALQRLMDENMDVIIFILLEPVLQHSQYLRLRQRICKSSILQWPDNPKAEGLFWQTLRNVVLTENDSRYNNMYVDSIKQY
Kind of assay: SEAP reporter assay in HEK-Blue TLR8 cells, R848-induced TLR8 signaling. It counts as cell-based. Here is the method:
SEAP reporter assay: HEK-Blue TLR8 cells were seeded in tissue culture treated 96-well plates with a density of 7.5×10^4 cells/well in DMEM media supplemented with 10% FBS (phosphatases deactivated with heat). […] Plates are then incubated in humidified incubators containing 5% CO2 at 37° C. for 24 h, after which, 30 μL of culture media was transfer to a new plate and 100 μL of Quanti-Blue (Invivogen) was added, the plate was then incubated at 37° C. till color change (30 min-1 h). Readout of absorbance at 620 nm was quantified using Beckman-Coulter DTX 880 Multimode Detector. […] SEAP assays for each sample were conducted with three biological replicates, each in triplicate.
To establish a robust high throughput assay for TLR8 inhibitors, the inventors first engineered a cell line stably overexpressing the human TLR8 whose activation can be reported by the Secreted Embryonic Alkaline Phosphatase (SEAP) assay. TLR8-overexpresing HEK-Blue cells were prepared by lentiviral infection of HEK-Blue Null1 cells that have null or low basal expression of endogenous TLR genes. […] The TLR8-mediated NF-κB activation can be assessed by measuring the SEAP activity.
A general note: A reporter such as luciferase makes a cellular process visible.

Setting [1] is: 1(2H)-phthalazinone and quinoline derivatives in HEK-Blue hTLR8 cells.
Setting [2] is: pyrazolo[1,5-a]pyrimidine derivatives in HEK-Blue hTLR8 cells, ± SD, at least three biological replicates.

Where two headings read alike, the source gives them in different places.

A word on the IC50: it is the midpoint of a concentration-inhibition curve. Take `Cc1cc(-c2cccc3ccccc23)ccc1O` [Compound 43, 1-(4-Hydroxy-3-methylphenyl)naphthalene]: the IC50 under setting [1] is > 20 µM.
Same read-out and setting: then `Cc1cc(-c2n[nH]c(=O)c3ccccc23)c(C)c(C)c1O` [Compound 24, 4-(4-Hydroxy-2,3,5-trimethylphenyl)-1(2H)-phthalazinone], with > 20 µM.
For `CNC(=O)c1cnn2c(-c3cccc(C(F)(F)F)c3)ccnc12` [Compound 6n], under setting [2], the midpoint of inhibition, the IC50, lay at 1.7 µM. Moreover, the “fold reduction in potency” value (secondary amide analog versus primary amide) was 25 fold.
As for `Cc1cc(-c2n[nH]c(=O)c3ccccc23)cc(C)c1O` [Compound 20, 4-(4-Hydroxy-3,5-dimethylphenyl)-1(2H)-phthalazinone], the IC50 under setting [1] worked out at 3.91 ± 0.2 µM.
Same read-out and setting: then `Cc1cc(-c2n[nH]c(=O)c3ccccc23)cc(C)c1N` [Compound 15], with > 20 µM.
Turning to `O=c1[nH]nc(-c2ccc(O)cc2)c2ccccc12` [Compound 19, 4-(4-Hydroxyphenyl)phthalazin-1(2H)-one], the IC50 under setting [1] was > 20 µM.
Still for that read-out and setting: then `CCn1nc(-c2ccc(O)c(C)c2)c2ccccc2c1=O` [Compound 31, 4-(4-Hydroxy-3-methylphenyl)-2-ethyl-1(2H)-phthalazinone], with > 20 µM.
Take `NC(=O)c1cnn2c(-c3ccc(C(F)(F)F)cc3)ccnc12` [Compound 6d]: the half-inhibitory concentration (IC50) under setting [2] worked out at 1.22 µM.
Take `O=c1[nH]nc(-c2ccc(O)c3ccccc23)c2ccccc12` [Compound 25, 4-(4-Hydroxy-naphthyl)-1(2H)-phthalazinone]: the IC50 under setting [1] was > 20 µM.
The same measure, in the same setting: then `Cc1cc(-c2cnnc3ccccc23)ccc1O` [Compound 45, 4-(4-Hydroxy-3-methylphenyl)-cinnolin], with 0.34 ± 0.02 µM.
In the case of `CCOC(=O)c1cnn2c(-c3cccc(C)c3)ccnc12` [Compound 3b], the IC50 under setting [2] was 0.092 ± 0.015 µM.
For the compound `Cc1cc(-c2ccnc3cc(Cl)ccc23)ccc1O` [CU-CPT9c, 4-(7-Chloro-4-quinolinyl)-2-methyl-phenol], half-maximal inhibition (IC50) required 0.001 ± 0.0002 µM.
`NC(=O)c1cnn2c(-c3cccc([N+](=O)[O-])c3)ccnc12` [Compound 6f] showed a half-inhibitory concentration (IC50) under setting [2] of 0.22 ± 0.07 µM.
In the case of `COc1ccc(-c2n[nH]c(=O)c3ccccc23)cc1C(F)(F)F` [Compound 27, 4-(4-Methoxyl-3-trifluoromethylphenyl)-1(2H)-phthalazinone], the concentration for half-maximal inhibition (IC50) under setting [1] is > 20 µM.
For `Cc1cc(-c2nn(C)c(=O)c3ccccc23)cc(C)c1O` [Compound 4, 4-(4-Hydroxy-3,5-dimethylphenyl)-2-methyl-1(2H)-Phthalazinone], the 50% inhibitory concentration (IC50) under setting [1] was 0.17 ± 0.02 µM.
The same measure, in the same setting: the result for `N#Cc1cc(-c2n[nH]c(=O)c3ccccc23)ccc1O` [Compound 28, 4-(4-Hydroxy-3-cyanophenyl)-1(2H)-phthalazinone] reads > 20 µM.
Same read-out and setting: the result for `Cc1cc(-c2cn(C(=O)OC(C)(C)C)c3ccccc23)ccc1O` [Compound 46, N-tert-butoxycarbonyl-3-(4-Hydroxy-3-methylphenyl)-indole] reads > 20 µM; that for `Cc1cc(-c2n[nH]c(=O)c3ccccc23)ccc1C(=O)O` [Compound 14, 4-(4-Carboxylic-3-methylphenyl)-1(2H)-phthalazinone], > 20 µM.
`Cc1cc(-c2cccc3ccccc23)ccc1O` [Compound 11d]: the IC50 (quinoline derivatives in HEK-Blue hTLR8 cells, ± SD, at least three biological replicates) was > 20 µM.
In the case of `NC(=O)c1cnn2c(-c3ccccc3)ccnc12` [Compound 6e], for the setting “HEK-Blue TLR8 cells, R848 as agonist”, the IC50 is 0.76 µM.
The compound `Cc1cc(-c2ccc(N)c3ccccc23)ccc1O` [Compound 3, 1-Amino-4-(4-hydroxy-3-methylphenyl)-naphthalene] came in with an IC50 under setting [1] of 2.72 ± 0.31 µM.
In the case of `CCc1cc(-c2n[nH]c(=O)c3ccccc23)ccc1O` [Compound 22, 4-(4-Hydroxy-3-ethylphenyl)-1(2H)-phthalazinone], the midpoint of inhibition under setting [1], the IC50, lay at 2.73 ± 0.85 µM.
The same measure, in the same setting: then `Cc1cc(-c2n[nH]c3ccccc23)ccc1O` [Compound 48, 3-(4-Hydroxy-3-methylphenyl)-1H-indazole], with > 20 µM; and `CC(=O)Oc1ccc(-c2n[nH]c(=O)c3ccccc23)cc1C` [Compound 18, 4-(4-Acetoxy-3-methylphenyl)-1(2H)-phthalazinone], with 3.77 ± 0.45 µM.
